Reference: US10669272B2, “Substituted naphthyridinone compounds useful as T cell activators” (BRISTOL-MYERS SQUIBB COMPANY, priority 2018, dated 2020)
pEC50, pIC50: −log10 of the molar value. Like-named read-outs stand apart in the source and are kept apart here.

Tests used:
human DGKα = target: T1, human DGKα (Homo sapiens, UniProt P23743); assay: DGKα LIPGLO assay (extruded liposome substrate), in vitro DGK inhibition; format: biochemical; details: read-out: DGKa LIPGLO IC50
T1 construct: TVMV protease cleavage site (C); Hexa-His (C); made in house; host or cells: Sf9 insect cells (baculovirus, Bac-to-Bac)
T1 sequence (P23743 with tags, fused parts or gaps): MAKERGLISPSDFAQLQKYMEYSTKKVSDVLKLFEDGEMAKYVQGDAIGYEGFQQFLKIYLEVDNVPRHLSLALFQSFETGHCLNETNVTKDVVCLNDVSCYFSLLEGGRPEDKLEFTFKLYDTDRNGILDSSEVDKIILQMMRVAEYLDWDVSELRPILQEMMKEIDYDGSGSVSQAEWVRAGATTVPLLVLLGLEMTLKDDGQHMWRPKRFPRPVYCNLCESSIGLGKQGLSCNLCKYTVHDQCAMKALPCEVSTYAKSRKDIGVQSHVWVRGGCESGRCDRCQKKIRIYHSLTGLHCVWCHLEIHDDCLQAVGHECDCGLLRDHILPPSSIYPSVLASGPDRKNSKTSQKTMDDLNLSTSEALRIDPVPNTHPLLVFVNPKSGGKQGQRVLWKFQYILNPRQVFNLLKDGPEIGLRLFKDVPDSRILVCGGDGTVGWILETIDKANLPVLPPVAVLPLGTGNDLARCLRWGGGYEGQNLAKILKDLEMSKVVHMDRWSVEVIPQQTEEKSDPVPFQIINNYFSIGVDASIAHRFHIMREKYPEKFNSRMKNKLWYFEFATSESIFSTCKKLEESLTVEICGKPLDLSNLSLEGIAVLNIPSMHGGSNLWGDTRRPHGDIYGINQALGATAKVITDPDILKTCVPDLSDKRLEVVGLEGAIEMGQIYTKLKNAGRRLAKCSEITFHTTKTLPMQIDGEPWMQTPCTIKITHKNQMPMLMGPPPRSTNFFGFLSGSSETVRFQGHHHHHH

Human venous whole blood = assay: Human whole blood IFN-γ assay; format: cell-based; details: human whole blood, read-out: INFg Whole Blood Normalized Agonist EC50;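 note: blood from healthy donors exposed to compound for 1 h before stimulation with anti-CD3 and anti-CD28 at 1 µg/mL each, IFN-γ quantified in supernatant by AlphaLISA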
Description: Human Whole Blood IFN-γ Assay
Human venous whole blood (22.5 μL per well), obtained from healthy donors, was pre-treated with compounds for one hour at 37° C. in a humidified 95% air/5% CO2 incubator. The blood was stimulated with 2.5 μL anti-human CD3 and anti-CD28 mAb at a final concentration of 1 μg/mL each for 24 hours at 37° C. IFN-γ in the supernatants was measured using AlphLISA kit (Cat # AL217).

human DGKζ = target: T2, human DGKζ (Homo sapiens, UniProt Q13574); assay: DGKζ LIPGLO assay (extruded liposome substrate), in vitro DGK inhibition; format: biochemical; details: read-out: DGKz LIPGLO IC50
T2 construct: TVMV protease cleavage site (C); Hexa-His (C); made in house; host or cells: Sf9 insect cells (baculovirus, Bac-to-Bac)
T2 sequence (Q13574 with tags, fused parts or gaps isoform Q13574-4): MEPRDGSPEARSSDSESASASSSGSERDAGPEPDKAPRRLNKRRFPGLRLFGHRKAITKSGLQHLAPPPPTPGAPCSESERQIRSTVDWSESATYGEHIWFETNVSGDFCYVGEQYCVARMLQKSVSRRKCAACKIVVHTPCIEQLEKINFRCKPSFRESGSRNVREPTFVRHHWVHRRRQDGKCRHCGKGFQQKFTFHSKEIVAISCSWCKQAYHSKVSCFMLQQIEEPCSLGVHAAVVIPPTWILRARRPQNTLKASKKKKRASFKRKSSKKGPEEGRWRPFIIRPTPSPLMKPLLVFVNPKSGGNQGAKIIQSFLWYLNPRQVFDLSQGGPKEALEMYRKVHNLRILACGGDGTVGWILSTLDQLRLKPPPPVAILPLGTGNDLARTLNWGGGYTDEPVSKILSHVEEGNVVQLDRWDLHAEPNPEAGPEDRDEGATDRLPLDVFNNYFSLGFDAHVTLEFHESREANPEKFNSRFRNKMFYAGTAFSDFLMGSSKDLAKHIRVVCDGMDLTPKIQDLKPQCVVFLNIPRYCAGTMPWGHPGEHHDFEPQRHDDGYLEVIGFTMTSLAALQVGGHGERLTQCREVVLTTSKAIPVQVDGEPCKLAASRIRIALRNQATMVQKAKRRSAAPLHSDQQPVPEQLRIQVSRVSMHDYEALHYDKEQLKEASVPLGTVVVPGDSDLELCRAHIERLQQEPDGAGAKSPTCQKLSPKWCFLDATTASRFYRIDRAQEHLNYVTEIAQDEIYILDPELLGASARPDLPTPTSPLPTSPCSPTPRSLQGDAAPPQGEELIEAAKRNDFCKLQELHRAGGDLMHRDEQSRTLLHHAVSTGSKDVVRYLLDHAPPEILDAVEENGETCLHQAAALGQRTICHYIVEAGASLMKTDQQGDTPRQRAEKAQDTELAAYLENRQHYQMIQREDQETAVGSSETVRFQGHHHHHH

[1] = Homo sapiens, 24 h, anti-CD3 plus anti-CD28, 24 hours, 3 μM reference compound = 100% activation
[2] = Homo sapiens, 24 h, normalized to 3 μM reference compound with anti-CD3 plus anti-CD28 as 100% activation
[3] = normalized to 3 μM reference compound with anti-CD3 plus anti-CD28 as 100% activation
[4] = anti-CD3 plus anti-CD28, 24 hours, 3 μM reference compound = 100% activation

SMILES | pIC50 (human DGKα; DGKα liposome (LIPGLO) assay) | pEC50 (Human venous whole blood; [1]) | pIC50 (human DGKζ; DGKζ liposome (LIPGLO) assay) | pIC50 (human DGKα; liposome (LIPGLO) assay) | pEC50 (Human venous whole blood; [2]) | pIC50 (human DGKζ; liposome (LIPGLO) assay) | pEC50 (Human venous whole blood; [3]) | pEC50 (Human venous whole blood; [4])
CC(c1ccc(Br)cc1)N1CCN(c2c(C#N)c(=O)n(C)c3ccc(C#N)nc23)C[C@H]1C (single isomer, unassigned) [Example 974] | 5.96 | 4.70 | 5.12 |  |  |  |  | 
C[C@@H]1CN(c2c(C#N)c(=O)n(C)c3ccc(C#N)nc23)CCN1Cc1ccc(F)c(F)c1 [Example 987] | 5.54 | 5.14 | 5.74 |  |  |  |  | 
C[C@@H]1CN(c2cc(=O)n(C)c3ccc(C#N)nc23)[C@@H](C)CN1Cc1cccc2c1ccn2C [Example 606] |  |  |  | 5.28 | 5.96 | 7.18 |  | 
C[C@@H]1CN(c2cc(=O)n(C)c3ccc(C#N)nc23)[C@@H](C)CN1C(c1ccc(F)cc1)C1CCCCO1 (single isomer, unassigned) [Example 358] |  |  |  | 5.05 | 6.00 | 4.68 |  | 
C[C@@H]1CN(c2cc(=O)n(C)c3ccc(C#N)nc23)[C@@H](C)CN1C(c1cccc(F)c1)c1cccc2c1OCCCO2 (single isomer, unassigned) [Example 445] |  |  |  | 4.40 | 5.59 | 6.38 |  | 
C[C@@H]1CN(c2cc(=O)n(C)c3ccc(C#N)nc23)[C@@H](C)CN1C(c1ccc(F)cc1)c1cnn(C2CC2)c1 (single isomer, unassigned) [Example 725] | 6.26 | 5.82 | 6.31 |  |  |  |  | 
CC[C@H]1CN(C(c2ccc(F)cc2)c2nc(C3CC3)cs2)[C@H](CC)CN1c1cc(=O)n(C)c2ccc(C#N)nc12 (stereo partly drawn) [Example 1067] |  |  |  | 7.10 | 7.96 | 7.33 |  | 
CCc1ccc(C(c2ccc(F)cc2)N2C[C@H](C)N(c3c(C#N)c(=O)n(C)c4ccc(C#N)nc34)C[C@H]2C)cc1 (single isomer, unassigned) [Example 811] | 5.03 | 5.68 | 5.59 |  |  |  |  | 
C[C@@H]1CN(c2c(C#N)c(=O)n(C)c3ccc(C#N)nc23)[C@@H](C)CN1C(c1ccc(F)cc1)c1cc(C2CC2)on1 (single isomer, unassigned) [Example 868] | 6.36 | 5.66 | 5.62 |  |  |  |  | 
C[C@@H]1CN(c2cc(=O)n(C)c3ccc(C#N)nc23)[C@@H](C)CN1C(c1ccc(F)cc1)c1cncnc1 (single isomer, unassigned) [Example 393] |  |  |  | 5.80 |  | 5.15 | 5.46 | 
COC[C@@H]1CN(c2cc(=O)n(C)c3ccc(C#N)nc23)[C@@H](C)CN1C(c1ccc(F)cc1)c1ccon1 (single isomer, unassigned) [Example 1399] |  |  |  | 6.80 |  | 6.35 | 5.52 | 
CC(c1ccc(OC(F)(F)F)cc1)N1C[C@H](C)N(c2cc(=O)n(C)c3ccc(C#N)nc23)C[C@H]1CC#N (single isomer, unassigned) [Example 1412] |  |  |  | 6.54 | 5.80 | 5.77 |  | 
CC(c1ccc(C(F)(F)F)cn1)N1C[C@H](C)N(c2cc(=O)n(C)c3ccc(C#N)nc23)C[C@H]1C (single isomer, unassigned) [Example 643] |  |  |  | 6.51 |  | 5.80 | 5.28 | 
CC[C@H]1CN(C(c2ccc(F)cc2)c2ccc(C#N)cc2)[C@H](COC)CN1c1cc(=O)n(C)c2ccc(C#N)nc12 (single isomer, unassigned) [Example 1170] |  |  |  | 6.12 | 6.64 | 6.77 |  | 
Cc1noc(C)c1CN1C[C@H](C)N(c2cc(=O)n(C)c3ccc(C#N)nc23)C[C@H]1C [Example 1426] |  |  |  | 4.48 | 4.70 | 5.40 |  | 
CC[C@@H]1CN(c2cc(=O)n(C)c3ccc(C#N)nc23)[C@@H](C)CN1C(c1ccc(F)cc1)c1ccon1 (single isomer, unassigned) [Example 1114] |  |  |  | 7.25 |  | 6.40 | 7.00 | 
CCC(c1ccc(OC(F)(F)F)cc1)N1C[C@H](C)N(c2cc(=O)n(C)c3ccc(C#N)nc23)C[C@H]1CC (single isomer, unassigned) [Example 1199] |  |  |  | 7.70 |  | 7.43 | 7.47 | 
CC(c1ccc(OC(F)(F)F)cc1)N1C[C@H](C)N(c2c(C#N)c(=O)n(C)c3ccc(C#N)nc23)C[C@H]1C (single isomer, unassigned) [Example 801] | 7.17 | 4.89 | 5.66 |  |  |  |  | 

SMILES | pIC50 (human DGKα; DGKα liposome (LIPGLO) assay) | pEC50 (Human venous whole blood; [1]) | pIC50 (human DGKζ; DGKζ liposome (LIPGLO) assay) | pIC50 (human DGKα; liposome (LIPGLO) assay) | pEC50 (Human venous whole blood; [2]) | pIC50 (human DGKζ; liposome (LIPGLO) assay) | pEC50 (Human venous whole blood; [3]) | pEC50 (Human venous whole blood; [4])
C[C@@H]1CN(c2c(F)c(=O)n(C)c3ccc(C#N)nc23)[C@@H](C)CN1C(c1ccc(F)cc1)c1ccc(C(F)(F)F)cc1 (stereo partly drawn) [Example 325, 7-fluoro-8-((2S,5R)-4-((4-fluorophenyl)(4-(trifluoromethyl)phenyl)methyl)-2,5-dimethylpiperazin-1-yl)-5-methyl-6-oxo-5,6-dihydro-1,5-naphthyridine-2-carbonitrile] |  |  |  | 6.17 |  | 5.64 | 5.49 | 
C[C@@H]1CN(c2c(C#N)c(=O)n(C)c3ccc(C#N)nc23)CCN1C(c1cccc(F)c1)c1ccc(C(F)(F)F)cn1 (single isomer, unassigned) [Example 949] | 5.18 |  | 5.96 |  |  |  |  | 4.70
Cc1ccc(C(c2ccc(F)cc2)N2C[C@H](C)N(c3c(C#N)c(=O)n(C)c4ccc(C#N)nc34)C[C@H]2C)cc1 (stereo partly drawn) [Example 818] | 4.24 |  | 5.14 |  |  |  |  | 5.38
COCCOc1cc(C(C)N2C[C@H](C)N(c3cc(=O)n(C)c4ccc(C#N)nc34)C[C@H]2C)ccc1C#N (single isomer, unassigned) [Example 1320] |  |  |  | 4.12 | 5.15 | 6.80 |  | 
COc1ccc(C(c2ccc(F)cc2)N2C[C@H](C)N(c3cc(=O)n(C)c4ccc(C#N)nc34)C[C@H]2C)cc1 (stereo partly drawn) [Example 658] |  |  |  | 6.16 |  | 6.23 | 5.82 | 
C[C@@H]1CN(c2c(C#N)c(=O)n(C)c3ccc(C#N)nc23)[C@@H](C)CN1C(c1ccc(F)cc1)c1ccc(C#N)cc1 (single isomer, unassigned) [Example 824] | 4.80 |  | 4.96 |  |  |  |  | 5.49
COc1cccc(C(c2ccc(F)cc2)N2C[C@H](C)N(c3cc(=O)n(C)c4ccc(C#N)nc34)C[C@H]2C)c1 (single isomer, unassigned) [Example 660] |  |  |  | 4.77 | 6.18 | 6.29 |  | 
COC[C@@H]1CN(c2cc(=O)n(C)c3ccc(C#N)nc23)[C@@H](C)CN1C(c1ccc(F)cc1)c1nc(C2CC2)cs1 (single isomer, unassigned) [Example 1396] |  |  |  | 7.21 |  | 7.92 | 7.59 | 
C[C@@H]1CN(c2cc(=O)n(C)c3ccc(C#N)nc23)[C@@H](C)CN1C(c1c(F)cc(O)cc1F)C(F)(F)F (single isomer, unassigned) [Example 628] |  |  |  | 5.23 |  | 5.13 | 5.32 | 
C[C@@H]1CN(c2cc(=O)n(C)c3ccc(C#N)nc23)[C@@H](C)CN1C(c1ccc(F)cc1)c1cnc(C2CC2)s1 (single isomer, unassigned) [Example 728] | 7.20 |  | 7.36 |  |  |  |  | 6.04
C[C@@H]1CN(c2cc(=O)n(C)c3ccc(C#N)nc23)[C@@H](C)CN1C(c1ccc(F)cc1)C(F)(F)CO (single isomer, unassigned) [Example 1311] |  |  |  | 3.92 | 4.96 | 4.72 |  | 
C[C@@H]1CN(c2cc(=O)n(C)c3ccc(C#N)nc23)[C@@H](C)CN1C(c1ccc(F)cn1)c1ccc(F)cn1 [Example 407, 8-((2S,5R)-4-(bis(5-fluoropyridin-2-yl)methyl)-2,5-dimethylpiperazin-1-yl)-5-methyl-6-oxo-5,6-dihydro-1,5-naphthyridine-2-carbonitrile] |  |  |  | 7.54 | 4.70 | 6.00 |  | 
C[C@@H]1CN(c2cc(=O)n(C)c3ccc(C#N)nc23)[C@@H](C)CN1C(c1ccc(F)cc1)c1csc(C2CC2)n1 (single isomer, unassigned) [Example 724] | 7.08 |  | 7.01 |  |  |  |  | 6.59
CCC(c1ccc(OC(F)(F)F)cc1F)N1C[C@H](C)N(c2cc(=O)n(C)c3ccc(C#N)nc23)C[C@H]1C (stereo partly drawn) [Example 438, 8-((2S,5R)-4-(1-(2-fluoro-4-(trifluoromethoxy)phenyl)propyl)-2,5-dimethylpiperazin-1-yl)-5-methyl-6-oxo-5,6-dihydro-1,5-naphthyridine-2-carbonitrile] |  |  |  | 6.49 | 6.13 | 6.09 |  | 
C[C@@H]1CN(c2c(F)c(=O)n(C)c3ccc(C#N)nc23)[C@@H](C)CN1C(c1ccc(F)cc1)c1ccccc1F (stereo partly drawn) [Example 333, 7-fluoro-8-((2S,5R)-4-((2-fluorophenyl)(4-fluorophenyl)methyl)-2,5-dimethylpiperazin-1-yl)-5-methyl-6-oxo-5,6-dihydro-1,5-naphthyridine-2-carbonitrile] |  |  |  | 6.08 | 5.92 | 5.96 |  | 
C[C@@H]1CN(c2c(C#N)c(=O)n(C)c3ccc(C#N)nc23)CCN1C(c1ccc(F)cc1)c1nc(C2CC2)no1 (single isomer, unassigned) [Example 1029] |  |  |  | 6.35 |  | 5.68 | 5.44 | 
CC(c1ccc(OC(F)(F)F)cc1)N1C[C@H](C)N(c2cc(=O)n(C)c3ccc(C#N)nc23)C[C@H]1CN(C)C (single isomer, unassigned) [Example 1414] |  |  |  | 4.40 | 5.00 | 5.31 |  | 
